#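 All cell lines were grown in 96-well plates and treated with compound for 48 hours. GI50: concentration for 50% inhibition of growth. TGI denotes the concentration required for complete inhibition of growth.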
# Assays:
# Assay in all cases: inhibition of tumour cell growth, NCI panel, 48 h
# COLO 205 colon = tested on: COLO 205 colon
# A498 renal = tested on: A498 renal
# MOLT-4 leukemia = tested on: MOLT-4 leukemia
# MALME-3M melanoma = tested on: MALME-3M melanoma
# UACC-257 melanoma = tested on: UACC-257 melanoma
# NCI/ADR-RES ovarian = tested on: NCI/ADR-RES ovarian
# OVCAR-5 ovarian = tested on: OVCAR-5 ovarian
# K-562 leukemia = tested on: K-562 leukemia
# ACHN renal = tested on: ACHN renal
# EKVX NSCLC = tested on: EKVX NSCLC
SMILES,GI50 (COLO 205 colon) [nM],TGI (COLO 205 colon) [µM],GI50 (A498 renal) [nM],TGI (A498 renal) [µM],GI50 (MOLT-4 leukemia) [nM],TGI (MOLT-4 leukemia) [µM],GI50 (MALME-3M melanoma) [nM],TGI (MALME-3M melanoma) [µM],GI50 (UACC-257 melanoma) [nM],TGI (UACC-257 melanoma) [µM],GI50 (NCI/ADR-RES ovarian) [nM],TGI (NCI/ADR-RES ovarian) [µM],GI50 (OVCAR-5 ovarian) [nM],TGI (OVCAR-5 ovarian) [µM],GI50 (K-562 leukemia) [nM],TGI (K-562 leukemia) [µM],GI50 (ACHN renal) [µM],TGI (ACHN renal) [µM],GI50 (EKVX NSCLC) [µM],TGI (EKVX NSCLC) [µM]
O=[N+]([O-])/C=C\c1ccc(Cl)c(Cl)c1,3480,12.8,667,3.81,1550,6.9,1460,6.05,1400,2.89,2180,4.78,8890,31.3,379,5.08,3.47,13.3,4.01,17.5
Nc1ccn(C2O[C@H](CO)[C@@H](O)[C@@H]2O)c(=O)n1 (stereo partly drawn),51800,> 100,–,> 100,16100,> 100,79600,> 100,–,> 100,–,> 100,–,> 100,–,–,42.9,> 100,–,> 100
COc1cc(/C=C/c2cc(/C=C/c3ccc(O)c(OC)c3)n(-c3ccccc3)n2)ccc1O,1770,3.31,575,1.82,347,> 100,–,–,1220,4.72,87.4,3.85,1270,4.51,–,–,–,–,1.12,3.7
CC1=C(C(=O)Nc2ccc([N+](=O)[O-])cc2)C(c2ccc(N(C)C)cc2)C(C(=O)Nc2ccc([N+](=O)[O-])cc2)=C(C)N1,–,33.7,–,81.8,–,42.3,–,52.6,–,35.6,–,–,–,67,–,37.6,–,43.6,–,90.4
COc1ccc(OC)c(NC(=O)C(=O)C(C(C)=O)c2nc3ccc(Cl)cc3[nH]c2=O)c1 (stereo not drawn),–,> 50,–,> 50,–,> 50,–,> 50,–,> 50,–,–,–,> 50,–,> 50,–,> 50,–,> 50
Cn1cc(-c2cnc3ccc(NC(=O)Nc4ccc(F)c(Br)c4)cc3n2)cn1,1590,3.24,1510,4.04,–,–,1560,3.55,1920,4.57,2210,5.41,1940,4.53,–,–,1.81,4.31,2.55,7.96
CCCCCCCCCCCCCC(=O)OC1CC(=O)OC1CO (stereo not drawn),–,> 100,–,> 100,–,52.1,–,> 100,–,> 100,–,–,–,> 100,–,58.8,–,> 100,–,> 100
O=C(N/N=C/c1ccccc1O)c1cccc([N+](=O)[O-])c1,–,> 100,–,> 100,–,> 100,–,> 100,–,> 60.6,–,–,–,> 100,–,> 100,–,> 100,–,82.8
O=C1NNC=Nc2ccc(cc2)S(=O)(=O)c2ccc(cc2)N=CNNC1=O,–,> 100,–,> 100,–,> 100,–,–,–,> 100,–,> 100,–,> 100,–,> 100,–,> 100,–,> 100
N#CSCC1CC(O)(c2ccccc2)C(c2ccccc2)C(c2ccc(Cl)cc2)O1 (stereo not drawn),1460,2.84,2160,5.63,–,–,1520,3.02,1610,3.39,1670,3.43,2130,3.86,1370,5.42,1.6,3.02,–,–
CSc1ccc(C2=NN(C(C)=O)C(c3cc(C)cs3)C2)cc1 (stereo not drawn),17300,35.8,–,–,7260,44.1,25500,97.5,28400,96.1,24500,> 100,44400,> 100,9310,> 100,30.1,> 100,24.3,> 100
Cc1ccc(C)c(NC(=O)CC/C(=N\NC(=O)C(=O)NN)C(C)C(=O)c2ccc(O)cc2)c1 (stereo not drawn),–,> 100,–,> 100,–,> 100,–,> 100,–,> 100,–,–,–,> 100,–,> 100,–,> 100,–,> 100
Cc1ccc(-c2c3c([nH]c(=O)c2C#N)-c2cc(F)ccc2OC3)cc1,> 100000,> 100,> 100000,> 100,97500,> 100,–,–,> 100000,> 100,> 100000,> 100,> 100000,> 100,86400,> 100,> 100,> 100,95.5,> 100
CN1CCN(Cc2ccc(NC(=O)c3cncc(C#Cc4cnc(N)c5ccc(C#N)cc45)c3)cc2C(F)(F)F)CC1,17.8,0.722,20.8,0.478,28,1.4,13.4,0.0943,136,3.09,915,2.03,211,0.986,–,–,0.0237,0.526,0.185,6.13
N=C1CSC2=NC3=C(CCC/C3=C\c3ccccc3)C(c3ccccc3)N12 (stereo not drawn),–,21.3,–,27.6,–,8.03,–,39.3,–,30,–,–,–,20.1,–,18.4,–,24.8,–,9.54
CSc1cc(N=Nc2nc3ccccc3s2)c2ccccc2c1O,14200,> 50,23300,45.5,–,–,–,–,11600,21.7,7170,20.7,16100,28.7,3600,15.2,6.57,13.1,7.2,16.4
COC(=O)CCCCN=Cc1c(O)c(O)c(C(C)C)c2cc(C)c(-c3c(C)cc4c(C(C)C)c(O)c(O)c(C=NCCCCC(=O)OC)c4c3O)c(O)c12,850,2.44,1790,> 32.5,783,19.2,1470,> 32.5,–,–,2320,> 32.5,–,–,640,4.09,1.15,> 32.5,0.924,> 32.5
